Where a name gives a salt, the structure may show the parent alone.
What was measured:
Yersinia pestis = test: microbe, parasite or virus in culture; type: cell-based
Staphylococcus aureus = test: microbe, parasite or virus in culture; type: cell-based
A. baumannii ATCC 17978 = test: Neutropenic murine model of thigh infection; type: in vivo, Acinetobacter baumannii; conditions: neutropenic mice
Salmonella species = test: microbe, parasite or virus in culture; type: cell-based
Shigella sp. = test: microbe, parasite or virus in culture; type: cell-based
[1] = tested on: Burkholderia pseudomallei; test: microbe, parasite or virus in culture; type: cell-based
[2] = tested on: Burkholderia cepacia species; test: microbe, parasite or virus in culture; type: cell-based
Achromobacter spp. = test: microbe, parasite or virus in culture; type: cell-based
Morganella morgannii = test: microbe, parasite or virus in culture; type: cell-based
Acinetobacter baumannii = test: microbe, parasite or virus in culture; type: cell-based
[3] = Photostability study (ICH-Q1B); type: physicochemical; conditions: ICH-Q1B illumination
[4] = Solubility enhancement trials; type: physicochemical
Protocol: All observations were recorded once the solution temperature reached to 25° C.-30° C.

Serratia marcescens = test: microbe, parasite or virus in culture; type: cell-based
[5] = tested on: Klebsiella oxytoca, aerogenes; test: microbe, parasite or virus in culture; type: cell-based
Citrobacter freundii = test: microbe, parasite or virus in culture; type: cell-based
Enterococcus faecium = test: microbe, parasite or virus in culture; type: cell-based
[6] = tested on: Stenotrophomonas maltophilia; test: microbe, parasite or virus in culture; type: cell-based
Streptococcus pneumoniae = test: microbe, parasite or virus in culture; type: cell-based
Enterobacter cloacae = test: microbe, parasite or virus in culture; type: cell-based
Pseudomonas aeruginosa = test: microbe, parasite or virus in culture; type: cell-based
Streptococcus pyogenes = test: microbe, parasite or virus in culture; type: cell-based
Campylobacter sp. = test: microbe, parasite or virus in culture; type: cell-based
[7] = tested on: Clostridium difficile (anaerobe); test: microbe, parasite or virus in culture; type: cell-based
Klebsiella pneumoniae = test: microbe, parasite or virus in culture; type: cell-based
Escherichia coli = test: microbe, parasite or virus in culture; type: cell-based
[8] = Burkholderia cepacia species clinical isolates, N 75

Cn1c(=O)ccc2ccc(F)c(CCNC[C@H]3CN(c4cnc5c(n4)NC(=O)CO5)C(=O)O3)c21 [compound of Formula (I) formate salt, (S)-6-(5-(((2-(7-fluoro-1-methyl-2-oxo-1,2-dihydroquinolin-8-yl)ethyl)amino)methyl)-2-oxooxazolidin-3-yl)-2H-pyrazino[2,3-b][1,4]oxazin-3(4H)-one formate]
MIC50 (Yersinia pestis): ≤ 0.015 µg/mL
MIC90 (Yersinia pestis): ≤ 0.015 µg/mL
MIC Range, high end (Yersinia pestis; N 35 strains): ≤0.015 µg/mL
MIC Range, low end (Yersinia pestis; N 35 strains): ≤0.015 µg/mL
MIC Range, high end (Staphylococcus aureus): 0.5 µg/mL
MIC Range, low end (Staphylococcus aureus): <0.015 µg/mL
MIC50 (Staphylococcus aureus; Staphylococcus aureus): 0.03 µg/mL
MIC90 (Staphylococcus aureus; Staphylococcus aureus): 0.03 µg/mL
MIC Range, high end (Helicobacter pylori): 0.5 µg/mL
MIC Range, low end (Helicobacter pylori): ≤0.015 µg/mL
effect on bacterial burden in thigh (A. baumannii ATCC 17978; SC 10 mg/kg q8h, 26 hours): effective at reducing
effect on bacterial burden in thigh (A. baumannii ATCC 17978; SC 30 mg/kg q8h, 26 hours): effective at reducing
effect on bacterial burden in thigh (A. baumannii ATCC 17978; SC 60 mg/kg q8h, 26 hours): either a bacteriostatic or killing effect
effect on bacterial burden in thigh (A. baumannii ATCC 17978; SC 90 mg/kg q8h, 26 hours): logarithmic killing
effect on bacterial burden in thigh (A. baumannii ATCC 17978; SC 120 mg/kg q8h, 26 hours): logarithmic killing
efficacy compared with polymyxin B (SC 25 mg/kg q8h) (A. baumannii ATCC 17978; doses ≥90 mg/kg q8h SC): more effective
efficacy compared with subcutaneous meropenem (200 mg/kg q8h) (A. baumannii ATCC 17978; doses ≥90 mg/kg q8h SC): more effective
effect on bacterial burden in thigh (A. baumannii ATCC 17978; ≥60 mg/kg q8h SC, across three replicate studies): logarithmic killing
MIC Range, high end (Salmonella species): 2 µg/mL
MIC Range, low end (Salmonella species): 0.03 µg/mL
MIC50 (Salmonella species; Salmonella): 0.12 µg/mL
MIC90 (Salmonella species; Salmonella): 0.25 µg/mL
MIC Range, high end (Shigella sp.): 0.25 µg/mL
MIC Range, low end (Shigella sp.): ≤0.015 µg/mL
MIC50 (Shigella sp.; Shigella): 0.03 µg/mL
MIC90 (Shigella sp.; Shigella): 0.06 µg/mL
MIC50 [1]: 0.25 µg/mL
MIC90 [1]: 0.5 µg/mL
MIC Range, high end ([1]; N 40 strains): 4 µg/mL
MIC Range, low end ([1]; N 40 strains): ≤0.015 µg/mL
MIC50 ([2]; Burkholderia cepacia): 0.06 µg/mL
MIC90 ([2]; Burkholderia cepacia): 0.5 µg/mL
MIC Range, high end [2, 8]: 2 µg/mL
MIC Range, low end [2, 8]: 0.03 µg/mL
MIC Range, high end (Achromobacter spp.): 0.5 µg/mL
MIC Range, low end (Achromobacter spp.): ≤0.015 µg/mL
MIC50 (Achromobacter spp.; Achromobacter): 0.06 µg/mL
MIC90 (Achromobacter spp.; Achromobacter): 0.12 µg/mL
MIC Range, high end (Morganella morgannii): 8 µg/mL
MIC Range, low end (Morganella morgannii): ≤0.015 µg/mL
MIC50 (Morganella morgannii; Morganella): 0.12 µg/mL
MIC90 (Morganella morgannii; Morganella): 0.5 µg/mL
MIC Range, high end (Acinetobacter baumannii): 4 µg/mL
MIC Range, low end (Acinetobacter baumannii): 0.03 µg/mL
MIC50 (Acinetobacter baumannii; Acinetobacter baumannii): 0.25 µg/mL
MIC90 (Acinetobacter baumannii; Acinetobacter baumannii): 0.5 µg/mL
sensitivity to light [3]: sensitive to light
pH ([4]; Sr. No. 2: 7.5% Citric acid solution): 1.96
pH ([4]; Sr. No. 6: 7.5% Citric acid + 20% HPβ-CD): 1.94
pH ([4]; Sr. No. 9: 10% Ascorbic acid + 1% PVP K-12 + 20% HPβ-CD): 2.9
pH ([4]; Sr. No. 10: 5% Ascorbic acid + 2% PVP K-12 + 20% HPβ-CD): 3.19
pH ([4]; Sr. No. 11: 7.5% Ascorbic acid + 2% PVP K-12 + 20% HPβ-CD): 3.08
pH ([4]; Sr. No. 12: 7.5% Ascorbic acid + 1% PVP K-12 + 20% HPβ-CD): 3.07
pH ([4]; Sr. No. 13: 5% Ascorbic acid + […] Lactic acid + 1% PVP K-12 + 20% HPβ-CD): 2.88
pH ([4]; Sr. No. 14: 5% Ascorbic acid + 1% PVP K-12 + 30% HPβ-CD): 3.25
pH ([4]; Sr. No. 15: 7.5% Ascorbic acid + 1% PVP K-12 + 30% HPβ-CD): 3.15
pH ([4]; Sr. No. 17: 10% Ascorbic acid + 1% PVP K-12 + 30% HPβ-CD): 3.03
pH ([4]; Sr. No. 18: 7% Ascorbic acid + […] Acetic acid + 1% PVP K-12 + 30% HPβ-CD): 3.06
pH ([4]; Sr. No. 19: 7% Ascorbic acid + 0.9% Glycine + 30% HPβ-CD): 3.25
pH ([4]; Sr. No. 20: 7% Ascorbic acid + […] Acetic acid + 0.9% Glycine + 30% HPβ-CD): 3.16
pH ([4]; Sr. No. 21: 7% Ascorbic acid + […] lactic acid + 1% PVP K-12 + 30% HPβ-CD): 2.91
pH ([4]; Sr. No. 22: 6% Ascorbic acid + […] Acetic acid + […] lactic acid + 1% PVP K-12 + 30% HPβ-CD): 2.84
pH ([4]; Sr. No. 23: Acetate Buffer (200 mM, pH 3.0) + 6% Ascorbic acid + […] lactic acid + 1% PVP K-12 + 30% HPβ-CD): 2.78
pH ([4]; Sr. No. 24: 5% Ascorbic acid + […] Acetic acid + […] lactic acid + 1% PVP K-12 + 30% HPβ-CD, pH adjusted by L-Arginine Solution): 3.73
MIC Range, high end (Serratia marcescens): 32 µg/mL
MIC Range, low end (Serratia marcescens): 0.03 µg/mL
MIC50 (Serratia marcescens; Serratia marcescens): 0.25 µg/mL
MIC90 (Serratia marcescens; Serratia marcescens): 1 µg/mL
MIC Range, high end [5]: 4 µg/mL
MIC Range, low end [5]: 0.06 µg/mL
MIC50 ([5]; Klebsiella oxytoca): 0.25 µg/mL
MIC90 ([5]; Klebsiella oxytoca): 0.5 µg/mL
MIC Range, high end (Citrobacter freundii): 8 µg/mL
MIC Range, low end (Citrobacter freundii): 0.03 µg/mL
MIC50 (Citrobacter freundii; Citrobacter freundii): 0.25 µg/mL
MIC90 (Citrobacter freundii; Citrobacter freundii): 1 µg/mL
MIC Range, high end (Enterococcus faecium): 0.5 µg/mL
MIC Range, low end (Enterococcus faecium): <0.015 µg/mL
MIC50 (Enterococcus faecium; Enterococcus faecium): 0.03 µg/mL
MIC90 (Enterococcus faecium; Enterococcus faecium): 0.12 µg/mL
MIC Range, high end [6]: 2 µg/mL
MIC Range, low end [6]: 0.03 µg/mL
MIC50 ([6]; Stenotrophomonas maltophilia): 0.06 µg/mL
MIC90 ([6]; Stenotrophomonas maltophilia): 0.25 µg/mL
MIC Range, high end (Streptococcus pneumoniae): 0.06 µg/mL
MIC Range, low end (Streptococcus pneumoniae): 0.03 µg/mL
MIC50 (Streptococcus pneumoniae; Streptococcus pneumoniae): 0.03 µg/mL
MIC90 (Streptococcus pneumoniae; Streptococcus pneumoniae): 0.03 µg/mL
MIC Range, high end (Enterobacter cloacae): 32 µg/mL
MIC Range, low end (Enterobacter cloacae): ≤0.015 µg/mL
MIC50 (Enterobacter cloacae; Enterobacter cloacae): 0.25 µg/mL
MIC90 (Enterobacter cloacae; Enterobacter cloacae): 1 µg/mL
MIC Range, high end (Pseudomonas aeruginosa): 8 µg/mL
MIC Range, low end (Pseudomonas aeruginosa): <0.015 µg/mL
MIC50 (Pseudomonas aeruginosa; Pseudomonas aeruginosa): 0.5 µg/mL
MIC90 (Pseudomonas aeruginosa; Pseudomonas aeruginosa): 1 µg/mL
MIC Range, high end (Streptococcus pyogenes): 0.06 µg/mL
MIC Range, low end (Streptococcus pyogenes): 0.03 µg/mL
MIC50 (Streptococcus pyogenes; Streptococcus pyogenes): 0.03 µg/mL
MIC90 (Streptococcus pyogenes; Streptococcus pyogenes): 0.03 µg/mL
MIC Range, high end (Campylobacter sp.): 0.03 µg/mL
MIC Range, low end (Campylobacter sp.): ≤0.015 µg/mL
MIC50 (Campylobacter sp.; Campylobacter): ≤ 0.015 µg/mL
MIC90 (Campylobacter sp.; Campylobacter): ≤ 0.015 µg/mL
MIC Range, high end [7]: 0.06 µg/mL
MIC Range, low end [7]: <0.015 µg/mL
MIC50 ([7]; Clostridioides difficile): < 0.015 µg/mL
MIC90 ([7]; Clostridioides difficile): 0.03 µg/mL
MIC Range, high end (Klebsiella pneumoniae): 32 µg/mL
MIC Range, low end (Klebsiella pneumoniae): 0.03 µg/mL
MIC50 (Klebsiella pneumoniae; Klebsiella pneumoniae): 0.5 µg/mL
MIC90 (Klebsiella pneumoniae; Klebsiella pneumoniae): 2 µg/mL
MIC Range, high end (Escherichia coli): 4 µg/mL
MIC Range, low end (Escherichia coli): ≤0.015 µg/mL
MIC50 (Escherichia coli; Escherichia coli): 0.12 µg/mL
MIC90 (Escherichia coli; Escherichia coli): 0.5 µg/mL

From US20260027125A1, “AN ANTIBACTERIAL PARENTERAL FORMULATION AND METHODS THEREOF” (BUGWORKS RESEARCH INDIA PVT. LTD., priority 2022, published 2026)
